{
  "source": "patent US20250127906A1",
  "about": "“SMALL-MOLECULE DEGRADERS OF CDK8 AND CDK19” (University of South Carolina, priority 2021, published 2025)",
  "key": {"MV4-11 cells": {"system": "MV4-11 cells", "assay": "Long-term growth of MV4-11 cells under continuous treatment", "format": "cell-based, human", "conditions": "MV4-11, 300 nM continuous", "protocol": "(§1) The anti-proliferative effects of a PROTAC and a kinase inhibitor were compared in leukemia cell lines. In the long-term treatment experiment shown in FIG. 11A, Jurkat cells (0.1 million cells) were continuously treated with vehicle control (0.1% DMSO), 300 nM BI-1347 or 300 nM IA7886 for 53 days (each condition in biological triplicates). Every 7-8 days, live cells were counted using BioRAD TC20 Automated Cell Counter with trypan blue staining: 0.1 million live cells were passaged to a new T25 flask to propagate under the same treatment conditions. The survival fraction was calculated by dividing the accumulated number of drug-treated cells with the accumulated number of vehicle-treated cells. […] This sustained inhibition property of PROTAC was also observed in MV4-11, a leukemia cell line highly sensitive to CDK8/19 kinase inhibitors."}, "KMS-12-BM cells": {"system": "KMS-12-BM cells", "assay": "Concentration dependence of KMS-12-BM growth inhibition (CCK-8 assay)", "format": "cell-based", "conditions": "Homo sapiens, 96 h, over 4 days", "protocol": "Concentration dependence of KMS-12-BM growth inhibition over 4 days was determined for BI-1347 CDK8/19 kinase inhibitor and IA7886 PROTAC using CCK-8 assay (FIG. 13B)."}, "CDK8/19-regulated genes": {"system": "CDK8/19-regulated genes", "assay": "QPCR of CDK8/19-regulated genes in HEK-293 wild-type and CDK8/19 double-knockout cells", "format": "cell-based, human", "conditions": "for effect on expression of CDK8/19-regulated genes: 200 nM, 3-day treatment", "protocol": "CDK8/19 act as transcriptional regulators, and therefore we tested the effects of 3-day treatment with 200 nM PROTAC IA7886 along with 200 nM CDK8/19 kinase inhibitor BI-1347 on a series of CDK8/19-regulated genes, using QPCR.\nWe have also compared the stability of transcriptional changes induced by a PROTAC and by a kinase inhibitor. In the experiment shown in FIG. 10A, HEK-293 cells were treated with 200 nM of BI-1347 or IA7886 for 3 days, and then the inhibitors were washed off and the restoration of transcriptional changes was monitored 24 hrs and 48 hrs after wash-off."}, "Jurkat cells [1]": {"system": "Jurkat cells", "assay": "Long-term growth of Jurkat cells under continuous treatment", "format": "cell-based, human", "conditions": "300 nM continuous", "protocol": "as §1"}, "SK-MM-2 cells": {"system": "SK-MM-2 cells", "assay": "SK-MM-2 multiple myeloma cell growth over 20 days continuous treatment", "format": "cell-based", "conditions": "BI1347 200 nM, Senexin C 1 μM, IA7886 200 nM, IA7843 1 μM", "protocol": "The following CDK8/19 kinase inhibitors were tested for their effects on MM cell lines over 20 days continuous treatment: CDK8/19 kinase inhibitors BI1347 (200 nM) and Senexin C (1 μM), BI1347-derived PROTAC IA7886 (200 nM) and Senexin C-derived PROTAC IA7843 (1 μM). 1-4 million cells were treated with vehicle control (0.1% DMSO), or CDK8/19 kinase inhibitors or PROTACs for 20 days. Every 4 days, cells were counted using BioRAD TC20 Automated Cell Counter with trypan blue staining, and the same number of cells were passaged to a new T25 flask to propagate under the same treatment conditions."}, "Jurkat cells [2]": {"system": "Jurkat cells", "assay": "Wash-off growth study in Jurkat cells", "format": "cell-based, human", "conditions": "pre-treated 200 nM for 8 days, then drug-free vs drug-containing media for 8 days", "protocol": "We also compared the stability of short-term growth inhibition induced by a PROTAC and a kinase inhibitor in a wash-off study in Jurkat cells. In the experiment shown in FIG. 11C, Jurkat cells were pre-treated with 200 nM BI-1347 or IA7886 for 8 days before removal of drug-containing media and further cultured in either drug-containing (200 nM) or drug-free media for 8 days before counting cell numbers. Removal of BI-1347 led to 7.1 fold increase of the cell number while removal of IA7886 increased the cell number only 1.8 fold (FIG. 11C)."}, "CDK8": {"molecular_target": "CDK8 (Homo sapiens, UniProt P49336)", "sequence (P49336 whole entry)": "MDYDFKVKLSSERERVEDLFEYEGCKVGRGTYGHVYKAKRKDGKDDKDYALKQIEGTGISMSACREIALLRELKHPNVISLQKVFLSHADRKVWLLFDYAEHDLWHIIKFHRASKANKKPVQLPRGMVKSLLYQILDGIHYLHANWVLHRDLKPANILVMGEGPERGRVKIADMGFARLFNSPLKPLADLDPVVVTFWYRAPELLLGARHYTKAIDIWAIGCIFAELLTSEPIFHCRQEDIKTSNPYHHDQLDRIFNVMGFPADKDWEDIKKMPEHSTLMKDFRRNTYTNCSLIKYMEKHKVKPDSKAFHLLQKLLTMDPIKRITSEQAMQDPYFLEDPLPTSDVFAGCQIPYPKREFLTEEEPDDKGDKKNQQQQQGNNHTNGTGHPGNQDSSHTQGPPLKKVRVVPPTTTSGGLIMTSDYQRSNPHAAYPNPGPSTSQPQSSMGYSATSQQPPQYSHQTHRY", "sequence (P24863 whole entry partner)": "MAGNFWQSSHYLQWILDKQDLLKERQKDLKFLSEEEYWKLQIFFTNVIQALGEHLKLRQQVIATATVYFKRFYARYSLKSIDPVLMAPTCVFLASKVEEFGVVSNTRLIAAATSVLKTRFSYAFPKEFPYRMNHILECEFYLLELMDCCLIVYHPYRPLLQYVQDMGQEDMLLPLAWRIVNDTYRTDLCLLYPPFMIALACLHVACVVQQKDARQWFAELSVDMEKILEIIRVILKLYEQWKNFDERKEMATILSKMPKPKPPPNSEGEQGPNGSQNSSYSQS", "assay": "CDK8 degradation in HEK-293 cells (Western blot, normalized by GAPDH)", "format": "cell-based", "design": "endogenous in cells; host or cells: HEK-293", "conditions": "for induction of CDK8 degradation by single agents: HEK-293, HP8580 200 nM and 1 μM, pomalidomide 5 μM, Senexin C 5 μM", "protocol": "Table 1 presents the structures of 35 different chimeras that have been synthesized, together with their effects (at 1 μM or 0.3 μM concentrations) on CDK8 degradation in HEK-293 cells. The synthesis schemes of all the compounds are described below. CDK8 degradation was measured by Western blot analysis of RIPA lysates of HEK-293cells treated with or without the test compound for 24 hours, using antibodies against CDK8 (Santa Cruz sc-1521) and housekeeping protein GAPDH (Santa Cruz sc-32233) (loading control) Protein bands on immunoblotted PVDF membranes were visualized with Western Lighting Plus ECL detection reagent (Perkin Elmer, Waltham, MA, USA) using ChemiDoc Touch™ (Bio-Rad). Image processing and densitometry analysis were performed using ImageLab software (Bio-Rad) to quantify the CDK8 protein levels (normalized by GAPDH) and evaluate the effects of compound treatment.\n(§2) FIGS. 2F and 2G show the effects of different concentrations of potent Senexin C- and BI-1347-based PROTACs on CDK8 and CDK19 degradation in HEK-293cells. Based on these assays, we calculated DC50 values that correspond to PROTAC concentrations inducing degradation of CDK8 and CDK19 to the half of protein level in untreated cells. The corresponding CDK8 DC50 values were 46 nM for IA7843, 6.6 nM for IA7882 and 2.8 nM for IA7886, and CDK19 DC50 values were 1 μM for IA7843, 25 nM for IA7882 and 10 nM for IA7886."}, "CDK19": {"molecular_target": "CDK19 (Homo sapiens, UniProt Q9BWU1)", "sequence (Q9BWU1 whole entry)": "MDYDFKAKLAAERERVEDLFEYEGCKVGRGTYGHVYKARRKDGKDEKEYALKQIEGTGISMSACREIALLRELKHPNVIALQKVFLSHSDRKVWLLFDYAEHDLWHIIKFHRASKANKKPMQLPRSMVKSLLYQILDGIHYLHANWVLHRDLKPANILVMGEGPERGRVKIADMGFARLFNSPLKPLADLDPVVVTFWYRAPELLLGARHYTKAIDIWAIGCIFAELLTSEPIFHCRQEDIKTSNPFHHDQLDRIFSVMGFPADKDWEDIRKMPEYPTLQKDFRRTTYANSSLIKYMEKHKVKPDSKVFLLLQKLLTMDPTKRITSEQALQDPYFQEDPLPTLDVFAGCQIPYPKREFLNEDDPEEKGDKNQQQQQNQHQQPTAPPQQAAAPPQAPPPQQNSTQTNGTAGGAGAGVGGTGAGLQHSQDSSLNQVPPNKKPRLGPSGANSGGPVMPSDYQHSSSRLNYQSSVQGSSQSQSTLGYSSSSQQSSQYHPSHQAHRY", "sequence (P24863 whole entry partner)": "as the sequence (P24863 whole entry partner) above", "assay": "CDK19 degradation in HEK-293 cells (Western blot)", "format": "cell-based", "design": "PROTACs on CDK8 and CDK19 degradation in HEK-293cells; endogenous in cells; host or cells: HEK-293", "conditions": "concentration degrading CDK19 to half of level in untreated cells", "text": "Furthermore, the degradation of both CDK8 and CDK19 by the PROTACs is also seen to decrease the levels of their binding partner cyclin C (CCNC) (FIG. 2B, D, E), which is known to be protected from proteolytic degradation by its interaction with CDK8 (Barette et al., 2001).\nas §2"}, "RPMI 8226 cells": {"system": "RPMI 8226 cells", "assay": "Concentration dependence of RPMI 8226 growth inhibition", "format": "cell-based", "conditions": "RPMI 8226, 4-day growth inhibition"}},
  "data": [
    {"smiles": "CN(C)C(=O)Cn1cc(-c2ccc(-c3cncc4ccccc34)cc2)cn1", "note": "[BI-1347, reference compound]", "values": [
      {"measurement": "growth inhibition over 60 days", "setting": "MV4-11 cells", "result": "strongly inhibited MV4-11 cells for the first 4 passages (33 days) but after that the cells became fully resistant to the kinase inhibitor"},
      {"measurement": "IC50", "setting": "KMS-12-BM cells", "result": "> 1", "unit": "µM"},
      {"measurement": "effect on expression of CDK8/19-regulated genes", "setting": "CDK8/19-regulated genes; CDK8/19 double-knockout (dKO) 293 cells", "result": "had no effect in dKO cells"},
      {"measurement": "stability of transcriptional changes after wash-off", "setting": "CDK8/19-regulated genes; HEK-293, 200 nM for 3 days, then 24 hrs and 48 hrs after wash-off", "result": "largely maintained 24 hrs after wash-off but mostly disappeared 48 hrs after wash-off"},
      {"measurement": "effect on expression of CDK8/19-regulated genes", "setting": "CDK8/19-regulated genes; wild-type HEK-293 cells", "result": "had similar effects on the expression of the tested genes"},
      {"measurement": "growth inhibition, first two passages (14 days)", "setting": "Jurkat cells [1]", "result": "had a stronger growth inhibition effect than the PROTAC IA7886"},
      {"measurement": "growth rates in later passages", "setting": "Jurkat cells [1]; up to 53 days", "result": "growth rates of BI-1347 treated cells were increasing"},
      {"measurement": "growth inhibition over 20 days, order of efficacy", "setting": "SK-MM-2 cells", "result": "BI1347<IA7886<Senexin C<IA7843"},
      {"measurement": "increase of the cell number upon removal of drug", "setting": "Jurkat cells [2]", "result": 7.1, "unit": "fold"}
    ]},
    {"smiles": "N#Cc1ccc2nccc(NCCc3ccc4cc(C(=O)N5CCN(C(=O)CCCCCCCCCCNC(=O)CCCNc6cccc7c6C(=O)N(C6CCC(=O)NC6=O)C7=O)CC5)ccc4c3)c2c1", "note": "(stereo not shown) [IA7843]", "values": [
      {"measurement": "% CDK8 remaining", "setting": "CDK8; HEK-293 cells, 24 hours, tested at 1 μM", "result": 13, "unit": "%"},
      {"measurement": "DC50", "setting": "CDK8; HEK-293 cells, concentration degrading CDK8 to half of level in untreated cells", "result": 0.046, "unit": "µM"},
      {"measurement": "DC50", "setting": "CDK19", "result": 1, "unit": "µM"}
    ]},
    {"smiles": "CN(C)C(=O)c1ccc(N2CCCN(c3ccnc4sc(C(N)=O)c(N)c34)CC2)cc1", "note": "[SNX631-6, reference compound]", "values": [
      {"measurement": "IC50", "setting": "RPMI 8226 cells", "result": "> 1", "unit": "µM"}
    ]},
    {"smiles": "CN1CCN(C(=O)c2ccc3cc(CCNc4ccnc5ccc(C#N)cc45)ccc3c2)CC1", "note": "[Senexin C, reference compound]", "values": [
      {"measurement": "growth inhibition over 20 days, order of efficacy", "setting": "SK-MM-2 cells", "result": "BI1347<IA7886<Senexin C<IA7843"},
      {"measurement": "induction of CDK8 degradation by single agents", "setting": "CDK8", "result": "but not pomalidomide or Senexin C induced CDK8 degradation"}
    ]},
    {"smiles": "Nc1cccc2c1C(=O)N(C1CCC(=O)NC1=O)C2=O", "note": "(stereo not shown) [pomalidomide, reference compound]", "values": [
      {"measurement": "induction of CDK8 degradation by single agents", "setting": "CDK8", "result": "but not pomalidomide or Senexin C induced CDK8 degradation"}
    ]}
  ]
}
